In patent US20080146662A1, “Methods and compositions for treatment of cancer pain” (priority 2002, published 2008):

What was measured:
Type in all cases: in vivo
[1] = test system: rat model of bone cancer pain (MRMT-1 rat mammary gland carcinoma cells); experiment: Weight-bearing difference in rat model of bone cancer pain (intra-tibial MRMT-1 cells); details: for weight-bearing difference between contralateral and ipsilateral paw: vs vehicle
Protocol: Adult female rats are given intra-tibial injections of MRMT-1 rat mammary gland carcinoma cells (3 μl, 10^7 cells/ml). These animals gradually develop mechanical hyperalgesia, mechanical allodynia (skin sensitivity to non-noxious stimuli) and hind limb sparing, beginning on day 12-14 following cell injection. COX-2 inhibitors, 5-methyl-2-(2′-chloro-6′-fluoroanilino)-phenylacetic acid (hereinafter referred to as COX189) (10 and 30 mg/kg p.o.) and valdecoxib (30 mg/kg p.o.) are administered as described below and the results obtained compared with vehicle treated controls.
Intra-tibial inoculation of MRMT-1 cells induces a time-dependent hypersensitivity in the ipsilateral limb, measured as a shift in body weight to the contralateral limb. The increase in weight-bearing difference between contralateral and ipsilateral paw (weight shift from the affected to the unaffected limb) is evident by day 14 post-inoculation and continues to increase until day 20.

[2] = test system: rat model of bone cancer pain (MRMT-1 rat mammary gland carcinoma cells); experiment: Mechanical allodynia (static and dynamic) in rat model of bone cancer pain; details: day 20; for static allodynia (punctuate stimulus), ipsilateral paw: 90 minutes after the last administration
Protocol: Adult female rats are given intra-tibial injections of MRMT-1 rat mammary gland carcinoma cells (3 μl, 10^7 cells/ml). These animals gradually develop mechanical hyperalgesia, mechanical allodynia (skin sensitivity to non-noxious stimuli) and hind limb sparing, beginning on day 12-14 following cell injection.

COX-1 = biological target: T1, COX-1 (Rattus norvegicus, UniProt Q63921); experiment: Thromboxane B2 levels in samples from treated animals (COX-1 inhibition)
T1 construct: The levels of thromboxane B2 in the samples from COX189-treated animals; from tissue; host or cells: samples from treated rats
T1 sequence (Q63921 27-602): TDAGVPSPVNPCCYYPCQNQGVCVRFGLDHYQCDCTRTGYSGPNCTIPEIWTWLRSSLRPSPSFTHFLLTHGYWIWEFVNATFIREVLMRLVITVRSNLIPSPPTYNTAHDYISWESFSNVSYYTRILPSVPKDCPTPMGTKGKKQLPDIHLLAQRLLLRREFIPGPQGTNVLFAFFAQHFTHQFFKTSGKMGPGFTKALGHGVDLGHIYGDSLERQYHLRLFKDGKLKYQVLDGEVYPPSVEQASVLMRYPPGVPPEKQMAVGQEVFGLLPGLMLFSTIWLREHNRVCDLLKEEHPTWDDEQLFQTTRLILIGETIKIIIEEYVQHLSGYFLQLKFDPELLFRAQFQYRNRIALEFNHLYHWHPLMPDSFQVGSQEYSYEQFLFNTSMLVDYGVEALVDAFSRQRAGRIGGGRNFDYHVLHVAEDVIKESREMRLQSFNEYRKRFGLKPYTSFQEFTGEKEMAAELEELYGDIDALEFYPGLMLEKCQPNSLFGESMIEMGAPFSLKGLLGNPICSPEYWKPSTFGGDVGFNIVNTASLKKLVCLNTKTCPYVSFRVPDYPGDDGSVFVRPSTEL

[3] = test system: rat model of bone cancer pain (MRMT-1 rat mammary gland carcinoma cells); experiment: Radiologically observed structural changes and bone mineral density in rat model of bone cancer pain; details: for radiologically observed structural changes / loss of bone mineral density compared to vehicle treated animals: day 20
Protocol: Adult female rats are given intra-tibial injections of MRMT-1 rat mammary gland carcinoma cells (3 μl, 10^7 cells/ml).

Row | thromboxane B2 level, % of the levels in the vehicle-control animals (COX-1; 10 mg/kg) | thromboxane B2 level, % of the levels in the vehicle-control animals (COX-1; 30 mg/kg) | Compound | weight-bearing difference between contralateral and ipsilateral paw ([1]; 10 mg/kg p.o. repeated from day 10 post-inoculation, days 14, 17 and 20, measured 1 hour after drug administration) | weight-bearing difference between contralateral and ipsilateral paw ([1]; 30 mg/kg p.o. repeated from day 10 post-inoculation, days 14, 17 and 20, measured 1 hour after drug administration) | dose dependence of the effect on weight-bearing difference ([1]; 10 versus 30 mg/kg p.o.) | dynamic allodynia (light stroking of the skin), ipsilateral paw ([2]; 10 mg/kg p.o. repeated) | static allodynia (punctuate stimulus), ipsilateral paw ([2]; 10 mg/kg p.o. repeated) | dynamic allodynia (light stroking of the skin), ipsilateral paw ([2]; 30 mg/kg p.o. repeated) | static allodynia (punctuate stimulus), ipsilateral paw ([2]; 30 mg/kg p.o. repeated) | radiologically observed structural changes ([3]; 10 mg/kg repeated) | loss of bone mineral density compared to vehicle treated animals ([3]; 30 mg/kg repeated) | radiologically observed structural changes ([3]; 30 mg/kg repeated) | radiologically observed structural changes in an animal model of bone cancer pain ([3]; general statement, no dose given) | weight-bearing difference between contralateral and ipsilateral paw ([1]; 30 mg/kg p.o. repeated, day 20)
1 | 87.4±17.7% | 64.5±8.0% | Cc1ccc(Nc2c(F)cccc2Cl)c(CC(=O)O)c1 [COX189, 5-methyl-2-(2′-chloro-6′-fluoroanilino)-phenylacetic acid] | significantly attenuates | significantly attenuates | not dose-dependent | tendency to reduce | significantly reverses | reaches statistical significance | significantly reverses | significantly inhibits | significantly inhibit | significantly inhibits | inhibit the radiologically observed structural changes | 
2 |  | 77.4±27.8% | Cc1onc(-c2ccccc2)c1-c1ccc(S(N)(=O)=O)cc1 [valdecoxib, reference compound] |  |  |  |  |  | tendency to reduce | significantly reverses |  | no significant effect | no significant effect |  | significant
